Measurements: a melting point compilation (Tetko et al.; mined from patent text by program, amines drawn as free bases though some values may be those of a salt)

First: CCc1c(-c2ccc(OC)cc2)c2ccc3cc(OC)cc1n32
Second: COc1ccc(CCNC(=O)c2ccc3c(c2)C=CC(C)(C)O3)cc1
The melting point of the first is higher: 109 to 111 °C for the first, 105 to 107 °C for the second.

First: Cc1ccc(-c2ccc3c(c2)C=C(C(=O)Nc2ccc(CNc4ccccc4)cc2)CCO3)cc1
Second: Nc1ccc(CNC(=O)C2Cc3ccccc3N2S(=O)(=O)c2ccc(-c3cccc(C(F)(F)F)c3)cc2)cc1 (stereo not given)
The melting point of the first is higher: 157 to 158 °C for the first, 84 °C for the second.

First: CN(C)S(=O)(=O)CCCOc1ccc2ncnn2n1
Second: CCC(CC)(C(=O)N(C)C)n1cc(C)c(-c2ccccc2)n1
The melting point of the first is higher: 151 to 153 °C for the first, 135 to 136 °C for the second.

Compared with `CC1(C)CS(=O)(=O)c2ccccc2C1c1cncnc1S(C)(=O)=O` (stereo not given), `CCOC(=O)N1CCC(Nc2nc3cncnc3n2Cc2ccccc2)CC1` is lower in melting point: 202 to 208 °C for the first, 157 °C for the second.

First: CCn1nc(-c2ccccc2)c(C(C)=O)c(Nc2cnccn2)c1=O
Second: CC(C)Cn1cnc2c(N)nc3ccc(-c4cccnc4)cc3c21
The melting point of the first is lower: 229 to 230 °C for the first, 244 to 246 °C for the second.

Compared with `CC1CCCC(C)N1C(=O)CSC#N` (stereo not given), `CC1=CC(=O)CC2CCC3C4C(C#N)CC(=O)C4(C)CCC3C12C` (stereo not given) is higher in melting point: 81 to 82 °C for the first, 193 °C for the second.

First: COC(=O)c1cc(C(=O)NCCCCN2CCC(c3ccc4c(c3OC)CCCC4)CC2)ccc1-c1ccc(C(F)(F)F)cc1
Second: COC(=O)c1ccccc1NC(=O)CN1CCN(C(=O)c2ccc(OC)cc2)CC1
The melting point of the first is lower: 132 °C for the first, 168 to 169 °C for the second.

First: C(=CCN(Cc1ccccc1)Cc1ccccc1)CN(Cc1ccccc1)Cc1ccccc1
Second: O=C1c2ccccc2CN1C1CCN(Cc2ccccc2)CC1
The melting point of the first is lower: 114 to 115 °C for the first, 116 to 118 °C for the second.

First: CC(C)(CN)c1ccc(C(=O)NCCc2ccc3[nH]cc(C(=N)N)c3c2)cc1
Second: COc1ccc2c(c1)c(CCc1cc(=O)n(C3CCCCC3)[nH]1)c(C)n2C(=O)c1ccc(Cl)cc1
The melting point of the first is lower: 67 to 70 °C for the first, 110 °C for the second.

First: CCCCCCC(=O)NCCO
Second: CCCCCCCCCCCC1CNc2cc(C(=O)O)ccc21 (racemic)
The melting point of the first is lower: 91 to 93 °C for the first, 107 to 111 °C for the second.

First: CC(=O)OCC(=O)C1(O)CCC2C3CCC4=CC(=O)CCC4(C)C3=CCC21C (stereo not given)
Second: COc1ccc2c(c1)CCC1CCNC(=O)C(CNC(C)C)=C21 (stereo not given)
The melting point of the first is higher: 234 °C for the first, 212 to 214 °C for the second.

Going from `C(=NNc1ccccc1)c1cccnc1` to `OCc1cccnc1Nc1cccc(C(F)(F)F)c1`, the melting point falls from 156 °C to 102 °C.

Compared with `CCC(CC)n1nnc2c(Nc3c(Cl)cc(OC)cc3OC)nc(C)cc21`, `COC(=O)CN(CC(=O)OC)[C@H]1CC[C@H](Nc2ncc3ncnc(Nc4ccc(F)c(Cl)c4)c3n2)CC1` is higher in melting point: 168 to 169 °C for the first, 181 to 184 °C for the second.

First: CSc1ncc2cc(-c3c(Cl)cccc3Cl)c(=NC(C)=O)n(C)c2n1
Second: CSc1nc(C)ccc1NC(=O)CSc1nc2ccccc2[nH]1
The melting point of the first is higher: 229 to 231 °C for the first, 192 to 193 °C for the second.

Compared with `C#CCOc1ccc(CC(=O)O)cc1[N+](=O)[O-]`, `CCOC(=O)CNc1nc(Cl)ccc1[N+](=O)[O-]` is lower in melting point: 135 to 137 °C for the first, 77.5 to 80 °C for the second.

First: Fc1cc2c(c3cccnc13)OC(CN1CC=C(c3c[nH]c4ccccc34)CC1)CO2 (stereo not given)
Second: Cc1cc(C(=O)N2Cc3cccn3Cc3ccccc32)ccc1C1=CCC2CCC1C2 (stereo not given)
The melting point of the first is higher: 215 °C for the first, 168 to 169 °C for the second.

First: Nc1cc(=O)n(Cc2cc(Cl)cc(Cl)c2)[nH]1
Second: O=c1[nH]c2cc(Cl)ccc2n1C1CCN(CCCNc2ccccc2[N+](=O)[O-])CC1
The melting point of the first is lower: 175 to 176 °C for the first, 220 °C for the second.

First: CC[C@@H](O)[C@@H](CCCC(C)=O)OCc1ccccc1
Second: CCCOC(Cc1ccc(OCCc2nc(-c3ccccc3)oc2C)c2ccsc12)C(=O)O (stereo not given)
The melting point of the first is lower: 30 to 31 °C for the first, 106 to 109 °C for the second.

Compared with `NC(=O)N(O)Cc1cccc(C(O)C#Cc2cccnc2)c1` (stereo not given), `CCOc1ccc(Nc2nc(Nc3ccc4c(c3)OCCO4)ncc2F)cc1` is higher in melting point: 153 °C for the first, 164 to 167 °C for the second.

Compared with `CCOc1ccc2c(c1)CC2C#N` (stereo not given), `COc1ccc(SC)c2c1CC(N)(C#N)CC2` (stereo not given) is higher in melting point: 50 to 52 °C for the first, 128 to 130 °C for the second.
